Test system: Aspergillus niger ATCC 6275
Assay: Determination of synergistic antimicrobial activity in MIC (96-well microplate, optical density at 620 nm)
Format: cell-based
Settings: for microbial growth percentage: 32.5° C., 24 to 48 hours
Excerpt: FIC Index=(MICa with B/MICa)+(MICb with A/MICb)
with: • MICa with B: minimum concentration of product A in the combination A+B which makes it possible to obtain an inhibitory effect. • MICb with A: minimum concentration of product B in the combination A+B which makes it possible to obtain the inhibitory effect. • MICa: minimum inhibitory concentration of product A alone. • MICb: minimum inhibitory concentration of product B alone.
As regards the combinations tested, MICa with b and MICb with a are the respective concentrations of A and of B in the combinations which make it possible to obtain a microbial growth percentage of less than or equal to 25%.
When the FIC index value is less than or equal to 1, it is considered that the combination of test compounds has a synergistic effect.
The microbial strain Aspergillus niger ATCC 6275, and a double-concentration Sabouraud broth liquid culture medium supplemented with polyoxyethylenated (20 OE) sorbitan monopalmitate (Tween 40 from Croda) and Phytagel® BioReagent were used (i.e. a mixture of 5 g of Phytagel+0.6 g Tween 40+60 g of Sabouraud broth).
A 96-well microplate at an incubation temperature of 32.5° C. is used.
The incubation time of the microplate is from 24 to 48 hours aerobically.
A 10% (weight/volume) stock solution was prepared by mixing 1 g of compound in 9 ml of aqueous 1‰ agar solution. Successive dilutions were made with the 1‰ agar solution. • Test of compounds A and B alone
50 μL of each of the daughter solutions obtained containing compound A or B are added to the microplate wells. 100 μL of Sabouraud liquid nutrient broth inoculated with the strain Aspergillus niger and 50 μL of aqueous 1‰ agar solution are also added thereto. • Test of compounds A and B as a mixture
50 μL of each of the daughter solutions obtained containing compound A and 50 μL of each of the daughter solutions obtained containing compound B are added to the microplate wells. 100 μL of Sabouraud liquid nutrient broth inoculated at double concentration with the strain Aspergillus niger are also added thereto.
A positive microbial growth control was also prepared. The positive microbial growth control corresponds to a mixture of 100 μL of aqueous 1‰ agar solution with 100 μL of Sabouraud liquid nutrient broth inoculated at double concentration with the strain Aspergillus niger in the absence of compounds A and B.
An absorbance control was performed in parallel on compounds A and B alone. This control corresponds to 100 μL of double concentration sterile Sabouraud liquid nutrient broth+100 μL of double concentration compound A or B.
In the three cases (absorbance control, growth control and test), the final volume present in each of the microplate wells is 200 μL.
In the two cases (test and control), the inoculum represents the concentration of the strain Aspergillus niger present in the final volume of the wells (200 μL) and is between 2 and 6×10^5 cfu/ml of Aspergillus niger.
The minimum inhibitory concentration (MIC) of each compound A and B alone and in combination was determined in a known manner by means of optical density measurements at a wavelength of 620 nm.

[1] = first concentration giving growth <= 25%

SMILES	microbial growth percentage (0.0625 weight % A alone (0 B)) [%]	microbial growth percentage (0.125 weight % A alone (0 B)) [%]	microbial growth percentage (0.25 weight % A alone (0 B)) [%]	% MIC of A alone [1] [%]	microbial growth percentage (0.0125 weight % B alone (0 A)) [%]	microbial growth percentage (0.25 weight % B alone (0 A)) [%]	microbial growth percentage (0.5 weight % B alone (0 A)) [%]	% MIC of B alone [1] [%]
CCOc1cc(CCC(C)=O)ccc1O [A, 4-(3-ethoxy-4-hydroxyphenyl)butan-2-one]	79	41	5	0.25				
OCC(O)COc1ccc(Cl)cc1 (centres unmarked) [B, 3-(4-chlorophenoxy)-1,2-propanediol]					71	38	1	0.5
